Data on 16 molecules can be found in patent US12030876B2, “Aryl hydrocarbon receptor (AHR) agonists and uses thereof” (Ikena Oncology, Inc., priority 2019, dated 2024).

The target in experiment [1] is T1, AHR (Homo sapiens, UniProt P35869).
T1 construct: endogenous in cells; host or cells: HepG2 (human), transfected with a DRE-luciferase reporter only
T1 sequence (P35869 11-848): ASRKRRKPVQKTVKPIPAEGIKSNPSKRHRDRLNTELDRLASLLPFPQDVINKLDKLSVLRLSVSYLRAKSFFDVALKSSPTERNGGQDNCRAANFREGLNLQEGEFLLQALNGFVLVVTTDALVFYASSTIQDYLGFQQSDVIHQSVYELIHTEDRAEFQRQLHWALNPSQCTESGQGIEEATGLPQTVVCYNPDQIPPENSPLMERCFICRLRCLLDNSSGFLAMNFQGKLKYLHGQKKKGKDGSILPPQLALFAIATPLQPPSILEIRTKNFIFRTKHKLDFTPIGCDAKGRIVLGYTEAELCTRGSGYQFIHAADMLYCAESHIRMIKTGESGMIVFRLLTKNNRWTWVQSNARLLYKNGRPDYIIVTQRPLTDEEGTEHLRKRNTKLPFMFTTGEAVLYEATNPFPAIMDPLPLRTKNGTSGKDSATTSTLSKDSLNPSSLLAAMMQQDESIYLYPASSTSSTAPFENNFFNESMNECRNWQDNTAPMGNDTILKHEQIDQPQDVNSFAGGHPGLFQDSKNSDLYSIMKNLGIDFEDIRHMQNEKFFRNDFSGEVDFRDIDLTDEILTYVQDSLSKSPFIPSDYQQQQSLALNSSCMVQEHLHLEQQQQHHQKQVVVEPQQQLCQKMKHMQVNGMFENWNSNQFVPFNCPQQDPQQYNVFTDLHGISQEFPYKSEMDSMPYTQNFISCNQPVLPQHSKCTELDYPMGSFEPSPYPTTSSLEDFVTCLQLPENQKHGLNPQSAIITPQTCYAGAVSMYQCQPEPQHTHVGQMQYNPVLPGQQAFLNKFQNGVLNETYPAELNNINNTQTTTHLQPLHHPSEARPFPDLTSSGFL
Briefly: DRE-Luciferase Reporter Assay, HepG2 (agonist). The experiment is classed as cell-based. The settings on record: read-out: DRE-Luc HepG2 - Agonist: Average EC50. An outline of the steps:
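Cells carrying a stably or transiently transfected DRE-luciferase reporter, plated overnight at 37 C, then given agonist for 6, 16 or 24 h before lysis and luciferase read-out. Signal scaled between no ligand (minimum) and activating ligand alone, e.g. TCDD (maximum); EC50 = concentration giving half-maximal luciferase activity.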
Background: Reporter assays use an easily measured gene product as a stand-in for the process of interest.

Experiment [2] concerns the target T2, AHR (Mus musculus, UniProt P30561).
T2 sequence (P30561 1-848 F348L/P471L): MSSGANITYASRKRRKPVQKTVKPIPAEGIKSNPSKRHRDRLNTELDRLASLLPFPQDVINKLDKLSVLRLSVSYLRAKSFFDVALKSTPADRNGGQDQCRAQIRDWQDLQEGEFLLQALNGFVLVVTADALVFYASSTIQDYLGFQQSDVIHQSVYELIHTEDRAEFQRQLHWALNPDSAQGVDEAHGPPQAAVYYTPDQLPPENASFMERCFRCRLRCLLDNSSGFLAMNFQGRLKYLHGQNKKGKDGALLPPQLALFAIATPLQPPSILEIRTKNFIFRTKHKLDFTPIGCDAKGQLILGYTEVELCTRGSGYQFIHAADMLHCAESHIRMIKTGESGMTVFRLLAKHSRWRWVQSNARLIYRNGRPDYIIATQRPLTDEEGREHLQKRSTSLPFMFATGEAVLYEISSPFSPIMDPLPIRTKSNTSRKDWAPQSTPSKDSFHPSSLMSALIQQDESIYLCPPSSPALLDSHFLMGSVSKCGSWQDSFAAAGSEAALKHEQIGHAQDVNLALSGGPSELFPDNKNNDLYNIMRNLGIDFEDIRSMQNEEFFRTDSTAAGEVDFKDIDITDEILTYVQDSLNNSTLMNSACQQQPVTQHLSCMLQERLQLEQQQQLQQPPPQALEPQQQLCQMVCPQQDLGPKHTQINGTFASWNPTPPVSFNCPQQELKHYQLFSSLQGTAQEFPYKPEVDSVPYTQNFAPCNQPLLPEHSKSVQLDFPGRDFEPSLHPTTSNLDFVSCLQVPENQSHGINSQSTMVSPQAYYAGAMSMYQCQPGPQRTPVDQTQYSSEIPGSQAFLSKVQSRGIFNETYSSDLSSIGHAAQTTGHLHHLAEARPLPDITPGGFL
Briefly: DRE-Luciferase Reporter Assay, Hepa1.6 (agonist). The experiment is classed as cell-based, murine. The note with it: Hepa1.6, Table 3; read-out: DRE-Luc Hepa1.6 - Agonist: Average EC50. The protocol: DRE-Luciferase Reporter Assay
AHR binds to Dioxin Responsive Elements (DRE) upstream of genes that it activates. One measure of AHR activity is activation of a reporter gene, such as luciferase, downstream of one or multiple DRE elements. Luciferase activity reflects activation and inhibition of AHR in the cells expressing this reporter.
Murine Hepa1-6 or Hepa-1c1c7 or other murine cell line with a DRE-luciferase reporter either stably or transiently transfected are plated in media in plates (96-well, 384-well or other plates) and incubated overnight at 37 C in a CO2 incubator. Likewise, human HepG2 or other human cell line with a DRE-luciferase reporter either stably or transiently transfected are plated in media in plates (96-well, 384-well or other plates) and incubated overnight at 37 C in a CO2 incubator.
(§1) The next day, an AHR agonist compound is added. Cells are incubated for 6, 16 or 24 hours or another time point and then lysed for determination of luciferase activity as a read-out of the AHR activation. Luciferase can be measured with a commercial kit such as the Promega Luciferase kit or any kit or reagents that provide the luciferin substrate for measuring luciferase activity. The level of luciferase with only activating ligand (e.g. such as TCDD, kynurenine, ITE (2-(1H-indole-3-ylcarbonyl)-4-thiazolecarboxylic methyl ester), VAF347, BNF (beta-naphthoflavone), ICZ (6-formylindolo(3,2-b) carbazole or other AHR ligands) added is the maximum signal while the luciferase with no ligand is the minimum signal. EC50s can be determined as the concentration which activates half of the maximum luciferase activity.

For experiment [3], the target named is T2, AHR. The experiment can be described thus: P450 CYP1A1 Luciferase Assay, Hepa1.6 (agonist). The experiment is classed as cell-based, murine. The settings on record: Hepa1.6, Table 2. As to the method:
P450 CYP1A1 Luciferase Assay
AHR binds to Dioxin Responsive Elements (DRE) upstream of genes that it activates. One measure of AHR activity is P450 CYP1A1 protein levels determined by measuring CYP1A1 enzyme activity using a luminogenic CYP1A1 luciferin-based substrate. Luciferase activity will reflect CYP1A1 activity resulting from activation of AHR in the cells.
Murine Hepa1-6 or Hepa-1c1c7 or other murine cell line, human HepG2 or other human cell line are plated in media (96-well, 384-well or other plates) and incubated overnight at 37 C in a CO2 incubator.
as §1, with “lysed and incubated with a CYP1A1 luciferase-based substrate (e.g. Luciferin-CEE)” for “lysed”, “3, 6, or 12 hours of another time point. Determination” for “determination”, “CYP1A1 enzyme activity” for “the AHR activation. Luciferase”, “P450 Glo CYP1A1 detection reagent” for “Luciferase kit”, “provide” for “provide the luciferin substrate”

The test system of experiment [4] is DSS model of Inflammatory Bowel Disease (IBD). It is filed as in vivo, C57Bl/6 mice. The settings on record: DSS model; compared with ITE administration; FIG. 8. The protocol: On study day −1, C57Bl/6 mice are weighed and randomized into treatment groups based on body weight. On study day 0, treatment groups are given 2.5% DSS in drinking water and treatment is initiated on the same day, with either vehicle or AHR agonist compound(s). On study day 7, DSS drinking water is replaced with normal drinking water for the remainder of the study. Body weight is measured daily during the entire study. On study day 10, animals are anesthetized with Isoflurane and bled to exsanguination followed by cervical dislocation. The entire colon is removed and measured for length, weight, and weight per length. Overall efficacy of test AR agonist compounds is based on body weight, colon length, and colon histopathology. Histopathology data is assessed for appropriate parameters, as determined by a pathologist and the parameters for these DSS studies can include inflammation, erosion, gland loss, edema, hyperplasia, neutrophil count, mucosal thickening, lymphoid aggregate count and lymphoid aggregate size. The different parameter scores can be added for a summed score for the study histopathology.

Each structure is given as a SMILES string. Where two headings read alike, the source gives them in different places. Where only a bound is given, the exact number is not on record here.

Regarding `NC(=O)c1cccc(Nc2nc(-c3ccc[n+]([O-])c3)cs2)c1` [I-147], the EC50 (usually the concentration needed to bring the measured effect to its halfway point) was 0.1 to 1 µM in experiment [1] (HepG2, Table 3) and above 1 µM in experiment [2].
As for `N#Cc1cccc(-c2nsc(Nc3cccc(C(F)(F)F)c3)n2)c1` [I-109], the EC50 is below 0.01 µM in experiment [1] (HepG2, Table 3) and above 1 µM in experiment [2].
For `N#Cc1cccc(-c2csc(Nc3cccc(C(F)(F)F)n3)n2)c1` [I-90], in that order: below 0.01 µM and above 1 µM.
Taken in the same sequence, the figures for `O=C(O)c1cc(/N=N/c2cccc(-c3csc(Nc4cccc(C(F)(F)F)c4)n3)c2)cc(C(=O)O)c1` [I-176] were above 1 µM and above 1 µM.
Regarding `C[n+]1cccc(-c2csc(Nc3cccc(C(F)(F)F)c3)n2)c1` [I-92], the EC50 in experiment [1] (HepG2, Table 3) is below 0.01 µM; in experiment [2], 0.1 to 1 µM.
As for `O=c1cc(-c2nsc(Nc3cccc(C(F)(F)F)c3)n2)cc[nH]1` [I-128], the EC50 in experiment [1] (HepG2, Table 3) is below 0.01 µM; in experiment [2], above 1 µM.
Taken in the same sequence, the figures for `N#Cc1cccc(-c2csc(Nc3cncc(C(F)(F)F)c3)n2)c1` [I-97] were below 0.01 µM and 0.01 to 0.1 µM.
Taken in the same sequence, the figures for `Nc1cc(-c2csc(Nc3cccc(C(F)(F)F)c3)n2)ccn1` [I-156] were below 0.01 µM and below 0.01 µM.
Taken in the same sequence, the figures for `C[N+](C)(C)CCOc1cc(-c2csc(Nc3cccc(C(F)(F)F)c3)n2)ccn1` [I-149] were 0.1 to 1 µM and 0.1 to 1 µM.
As for `O=C(O)c1cc(/N=N/c2cc(-c3csc(Nc4cccc(C(F)(F)F)c4)n3)ccc2F)ccc1O` [I-178], the EC50 was above 1 µM in experiment [1] (HepG2, Table 3) and above 1 µM in experiment [2].
As for `[O-][n+]1cc(Cl)cc(-c2csc(Nc3cccc(C(F)(F)F)c3)n2)c1` [I-107], the EC50 in experiment [1] (HepG2, Table 3) is below 0.01 µM; in experiment [2], above 1 µM.
On to `FC(F)(F)c1cccc(Nc2nc(-c3cccc(/N=N/c4cccc(-c5csc(Nc6cccc(C(F)(F)F)c6)n5)c4)c3)cs2)c1` [I-41], for which the EC50 in experiment [3] was above 1 µM; in experiment [1] (HepG2, Table 2), 0.1 to 1 µM. In experiment [4], the “histology evaluation of inflammation” value is reported as “comparable activity”.
Consider `Nc1ccccc1-c1csc(Nc2ccccc2C(F)(F)F)n1` [I-172], for which the EC50 in experiment [1] (HepG2, Table 3) was 0.01 to 0.1 µM; in experiment [2] it was above 1 µM.
As to `C[N+](C)(C)CCNC(=O)N(c1cccc(C(F)(F)F)c1)c1nc(-c2cc[nH]c(=O)c2)cs1` [I-146], the half-maximal effective concentration (EC50) in experiment [1] (HepG2, Table 3) is below 0.01 µM; in experiment [2] it was above 1 µM.
Consider `C[N+](C)(CCNC(=O)N(c1cccc(C(F)(F)F)c1)c1nc(-c2cccc([N+](=O)[O-])c2)cs1)CCNC(=O)N(c1cccc(C(F)(F)F)c1)c1nc(-c2cccc([N+](=O)[O-])c2)cs1` [I-148], for which the half-maximal effective concentration (EC50) in experiment [1] (HepG2, Table 3) lay within 0.01 to 0.1 µM; in experiment [2], 0.1 to 1 µM.
Taken in the same sequence, the figures for `Fc1ccc(/N=N/c2ccc(F)c(-c3csc(Nc4cccc(C(F)(F)F)c4)n3)c2)cc1-c1csc(Nc2cccc(C(F)(F)F)c2)n1` [I-169] were 0.1 to 1 µM and 0.1 to 1 µM.
